Experimental data from patent US6184254A, “Methods of identifying modulators of perivascular sensory nerve Ca2+ receptors” (priority 1998, dated 2001).
Entries after “also recorded” stand apart in the source; their conditions may differ.

How the values were obtained:
[1] = tested on: mesenteric resistance arteries; test: Ca2+-induced relaxation of isolated mesenteric resistance arteries (wire myograph); set-up: species or system rat
Source text: Branch I and II mesenteric resistance arteries, internal diameter […], are isolated from the mesenteric arcade of male Wistar rats and placed in ice cold physiologic salt solution (PSS) of the following composition in mM: NaCl, 130-140; KCl, 4.7; MgSO4.7H2 O, 1.17; NaHCO3, 5-15; KH2 PO4, 1.15 and Na2 HPO4, 1.10, CaCl2, 1.0; HEPES, 50; and glucose, 5, with a pH of 7.4 when gassed with 95% air, 5% CO2.
After cleaning of fat and connective tissue, the arterial segments are denuded of endothelium by rubbing a human hair in and out of the lumen. The vessel segments are then mounted between a force transducer and translation stage of a wire myograph using tungsten wire and the PSS is warmed to 37° C. and gassed with 95% air, 5% CO2 to provide a pH of 7.4. The vessel segments are then stretched to a length which is equivalent to an internal diameter of […] and allowed to equilibrate for 30 minutes. […]
Mesenteric resistance artery segments are isolated from sham treated and denervated rats and prepared for measurement of isometric force generation using the wire myograph system. […] For each vessel, the maximal level of relaxation is recorded and used for comparisons. At the end of the protocol, the ability of the vessel to relax in response to addition of sodium nitroprusside (SNP) is assessed to determine the ability to relax in response to a non-neural stimulus. […]

[2] = tested on: renal artery segment pre-contracted with norepinephrine; test: Superfusion bioassay with renal artery segment; set-up: species or system rat
Source text: The renal artery used as the bioassay segment was isolated and mounted between a fixed support and a force transducer and the lack of response to addition of Ca^2+ was verified (FIG. 9A). The bioassay segment was then superfused with PSS that was allowed to drip across a mesenteric arcade attached to PE-10 tubing; the cut ends of the arcade were tied with suture material to prevent egress of endothelium-derived factors. […] To further examine the possibility that a diffusible substance was released from the mesenteric arcade in response to 5 mM Ca^2+, the superfusate was collected and stored on ice for approximately 45 minutes. The bioassay segment was then returned to the organ chamber, recontracted with norepinephrine and the response to Ca^2+ and to the collected superfusate were assessed.

[3] = tested on: mesenteric resistance arteries; test: Isometric force/active stress of Ca2+-depleted mesenteric resistance arteries; set-up: species or system Wistar rat
Protocol: In the course of studies designed to examine the hypothesis that the Ca^2+ force relationship of resistance arteries is altered in genetically hypertensive rats, it was discovered that physiologic concentrations of extracellular Ca^2+ affected the repeated contraction elicited by norepinephrine in Ca^2+ -free medium.
(§1) Mesenteric resistance arteries were isolated from Wistar rats; and intracellular Ca^2+ and isometric force were measured using a fura-based method and w ire myography (Bian, et aL, 1995b). Vessels were depleted of releasable Ca^2+ by repeated contraction with norepinephrine; and extracellular Ca^2+ was then cumulatively added back from 0.025-2.5 mmol/L in the presence of a n agonist. […] It was concluded that extracellular Ca^2+ limits force generation by depressing myofilament Ca^2+ sensitivity and decreasing intracellular Ca^2+ secondary to activation of a Ca^2+ -sensitive K^+ channel.

[4] = tested on: intracellular Ca^2+ of mesenteric resistance arteries; test: Intracellular Ca2+ (fura-based) of mesenteric resistance arteries; set-up: species or system Wistar rat; conditions: 1.6 and 2.5 mmol/L Ca2+
Protocol: as §1

[5] = tested on: mesenteric resistance arteries of SHR and WKY; test: Response to norepinephrine of SHR and WKY mesenteric resistance arteries at different extracellular Ca2+; set-up: species or system rat (SHR and WKY); conditions: 1.5 and 2.5 vs 1.25 mmol/L Ca2+, both strains
Protocol: In an initial series of experiments the isometric force response of mesenteric resistance arteries of SHR and WKY was assessed to cumulative addition of norepinephrine in the presence of 1.25, 1.5 and 2.5 mmol/L extracellular Ca^2+ (Li, J., et al., 1993).

[6] = tested on: mesenteric resistance arteries; conditions: cited from earlier work
blood pressure [7] = conditions: SHR; cited from earlier work
blood pressure [8] = conditions: cited from earlier work
rat tail arteries = conditions: raising Ca2+ from 4.1 to 20.1 mmol/L; cited from earlier work
rat aorta = conditions: cited from earlier work
cremaster arterioles = conditions: Ca2+ 0 to 5.1 mM; cited from earlier work
mammalian arteries = conditions: slightly supraphysiologic concentrations; cited from earlier work
aorta = conditions: high extracellular Ca2+; cited from earlier work
[9] = tested on: Ca^2+-induced relaxation of mesenteric resistance arteries; test: Inhibition of Ca2+-induced relaxation of mesenteric resistance arteries by antagonists or denervation; set-up: species or system rat
[10] = tested on: CGRP nerve fiber density of mesenteric resistance arteries; test: CGRP nerve staining/density after capsaicin-induced sensory denervation; assay type: in vivo, rat
Protocol: (§2) Pregnant rats are received at 15 days gestation and pups are delivered in a vivarium. On the first and second days of life, each pup is lightly anesthetized with halothane and given s.c. injection of capsaicin (50 mg/kg) or vehicle. The rats are then kept until 7-9 weeks of age at which time they are euthanized and tissue isolated. Sub-acute regional nerve destruction is performed. […] The would is closed and the rats are allowed to recover for three days following which branches leading from the treated vessel segments are harvested for study. For each procedure, two methods are used to verify denervation of the arteries. One is a functional assay in which arteries isolated from sham or denervated rats are electrically stimulated under conditions that selectively activate perivascular sensory dilator nerves; the second is an immunocytochemical approach.
At 8 weeks of age the rats were killed and whole mount preparations of mesenteric resistance arteries were prepared, stained with polyclonal anti-calcitonin gene related peptide (CGRP), which is the primary sensory nerve transmitter, and quantified using stereomorphologic methods (Schmidt-Schoenbein et al., 1977).

perivascular CaR = test: Perivascular CaR expression after capsaicin-induced denervation; assay type: in vivo, rat; conditions: KK3 antiserum
Protocol: as §2, with “One is a functional assay in which arteries isolated from sham or denervated rats are electrically stimulated under conditions that selectively activate perivascular sensory dilator nerves; the second is an immunocytochemical approach.” left out
The effect of sensory denervation on perivascular nerve CaR expression is assessed using western blot analysis. […] The membranes are then stained with monoclonal anti-parathyroid CaR (1:7500) and anti-smooth muscle α-actin, then visualized using the enhanced chemiluminescence, and quantified using laser densitometry. The relative expression of CaR in each sample is then assessed as the ratio of the density of CaR staining; α-actin staining. […]
The results have been presented (Mupanomunda et al., 1997). Additional studies quantify the effect of capsaicin-induced denervation on CaR content using western blot analysis.

neurogenic inflammation = conditions: denervation and desensitization by treatment with capsaicin; cited from earlier work

[Ca+2] [Ca^2+]
relationship of 3 mM Ca2+-induced relaxation with CaR content ([1]; 5 μM norepinephrine): positively correlated
relaxation response of precontracted artery to Ca2+ ([1]; 1.5, 2, 3, 5, 7.5 and 10 mmol/L): biphasic relaxation response
effect on renal artery bioassay segment when superfused over the donor segment ([2]; 5 mM Ca2+): caused relaxation
direct effect on bioassay (renal artery) vessel ([2]; 5 mM Ca2+ added directly): without effect; also recorded: absence of response
direct effect on renal artery vessel after recontraction ([2]; Ca2+ 1.5-5.0 mM): no effect
effect on force ([3]; Ca2+ between 0.01 and 0.8 mmol/L): increase in force
steady state force and Ca2+ in ([3]; Ca2+ from 0.8 to 1.6, FIG. 2): decreased steady state force but not steady state Ca^2+in
effect on active stress ([3]; norepinephrine, serotonin and PGF2α contraction, not K+, 0.8 to 1.6 and 1.6 to 2.5 mmol/L): decreased active stress
effect on force ([3]; raising Ca2+ from 0.8 to 1.6 or 1.6 to 2.5 mmol/L): caused relaxation; also recorded: decrease in force and Ca^2+
steady state intracellular Ca2+ [4]: only decreased significantly in response to 2.5 mmol/L extracellular Ca^2+
response to low dose norepinephrine [5]: significantly depressed
EC50 ([6]; cumulatively raising extracellular Ca2+ above 1.5 mM, n=12, read-out: ED50 value of Ca2+-induced relaxation): 2400 ± 170 µM
extent of relaxation ([6]; raising extracellular Ca2+ above 1.5 mM): nearly complete relaxation
effect on isolated arteries ([6]; raising extracellular Ca2+ from 1.0 mM to 1.5 mM): relaxes isolated arteries
effect of elevated dietary calcium intake on blood pressure (blood pressure [7]): lowers blood pressure
blood pressure lowering effect of Ca2+ supplementation (blood pressure [8]; clinical trials, overall): small overall blood pressure lowering effect
blood pressure response to Ca2+ supplementation in sub-groups (blood pressure [8]; sub-groups): significant fall in blood pressure
effect on rat tail arteries (rat tail arteries): relaxes rat tail arteries
effect of extracellular Ca2+ on K+-induced contraction (rat aorta): depressed
effect on cremaster arterioles (cremaster arterioles): graded contraction
effect on force generation (mammalian arteries): depress force generation
effect on early force response of the aorta to epinephrine (aorta): suppress the early force response
effect on later steady state response of the aorta (aorta): enhanced

COc1cc(CNC(=O)CCCC/C=C/C(C)C)ccc1O [capsaicin]
effect on Ca2+-induced relaxation ([9]; 20 minutes pre-treatment, 10 μM capsaicin): inhibited/reversed
effect on Ca2+-induced relaxation ([9]; chronic capsaicin-induced sensory denervation): attenuates; also recorded: significantly attenuated
effect on staining for CGRP ([10]; capsaicin denervation): significantly decreases
reduction in CGRP nerve fiber density ([10]; neonatal capsaicin (50 mg/kg s.c.), 8 weeks of age): 40%
effect on staining for perivascular CaR (perivascular CaR): significantly decreases
effect of treatment on neurogenic inflammation (neurogenic inflammation): prevented
